Measurements from article PMC10447463, “Data-mining unveils structure–property–activity correlation of viral infectivity enhancing self-assembling peptides” (Nature Communications, 2023).
Like-named read-outs stand apart in the source and are kept apart here.

Assays:
[1] = system: HIV-1 infection of TZM-bl cells; assay: HIV-1 infectivity enhancement assay, β-galactosidase luminescence; assay type: cell-based; settings: for Rel-EFC / Log10 Infection Rel EFC: 1.3 µM peptide; for Rel-EFC: infection relative to EF-C (QCKIKQIINMWQ = 1); for Log10 Infection Rel EFC: log10 of infection relative to EF-C; for Log Infectivity: Log10 infection relative to EF-C, TZM-bl cells, asymmetric std dev errors; for Log10 Infection Rel EF-C: HIV-1 infection of TZM-bl cells; for Log10 Inf. rel. to EF-C: log10 of HIV-1 infection of TZM-bl cells relative to EF-C (EF-C = 0); for Abs. Inf.: absolute infection signal, HIV-1 on TZM-bl cells, β-galactosidase luminescence
[2] = assay type: physicochemical; parameters: key to Fibril / Fibril Formation / TEM 2cat / Fibril: 1 = fibrils present; 0 non-fibrillar structures; settings: for Fibril / Fibril Formation: 1 mg/mL, uranyl acetate stain, qualitative
[3] = Zeta-potential measurement; assay type: physicochemical
In short: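 One-day room-temperature aggregation at 1 mg/mL in PBS (pH 7.4) preceded measurement; samples then went into 1 mM KCl. Triplicates per sample, two independent experiments averaged.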

[4] = Turbidity, derived count rate of scattered light; assay type: physicochemical; settings: for Count Rate: derived count rate of scattered light (turbidity); for Log10 Count Rate: turbidity, derived count rate of scattered light, data of Figure 2D
[5] = Fig. S7 panel A (plotted against β-sheet content)
[6] = Log10 of infection rate relative to EF-C, Figure 3A source data
[7] = infection rate relative to EF-C, log10, data of Figure 2D
[8] = infection rate relative to EF-C, log10, source data of Figure 2C
[9] = FigS12 panel A, fibril category by TEM
[10] = TEM, 1 = fibrils present, 0 = non-fibrillar
[11] = TEM, 1 = fibrils present, 0 = non-fibrillar structures
[12] = zeta potential of peptide assemblies
[13] = zeta-potential of peptide, source data of Figure 2C
[14] = zeta-potential of the peptide assemblies, mean, Figure 3A source data
[15] = Fig. S7 panel B (plotted against CR), rounded to two decimals

Substance | Rel-EFC [1] | Log10 Infection Rel EFC [1] | Log Infectivity [1, 5] | Log10 Infection Rel EF-C [1, 6] | Log10 Infection Rel EF-C [1, 7] | Log10 Infection Rel EF-C [1, 8] | TEM 2cat ([2]; Fig S10 panel D) | TEM 2cat [2, 9] | Fibril ([2]; FigS12 panel B, TEM) | Fibril / Fibril Formation ([2]; TEM) | Fibril [2, 10] | Fibril [2, 11] | Zeta-Pot. [3, 12] | Zeta-Potential / mV [3, 13] | Zeta-Potential / mV [3, 14] | Count Rate [4] | Log10 Count Rate [4] | Log10 Inf. rel. to EF-C [1] | Abs. Inf. [1] | Zeta-Pot. [3] | further results
EFEFQF | 0 | -2,49 | -2.485 | -2.49 | -2.485 | -2.485 | 0 | 0 | 0 | 0 | 0 | 0 | -24.5 | -14.88 mV | -24.5 mV | 405.4 | 2.608 | – | – | – | –
EIEIEIEI | 0,02 | -1,75 | -1.748 | -1.75 | -1.748 | -1.748 | 1 | 1 | 1 | 1 | 1 | 1 | -8.92 | -7.535 mV | -8.92 mV | 538.4 | 2.731 | -1.748 | – | – | –
FDPFDPFDP | 0,02 | -1,63 | -1.6317 | -1.63 | -1.6317 | -1.6317 | 0 | 0 | 0 | 0 | 0 | 0 | – | -6.68 mV | -10.9 mV | 258 | 2.412 | -1.6317 | 346.7 | -10.9 | –
FKFDKFKFDK | 0,05 | -1,33 | -1.334 | -1.33 | -1.334 | -1.334 | 0 | 0 | 0 | 0 | 0 | 0 | – | -8.027 mV | -12.7 mV | 45.13 | 1.6545 | -1.334 | 513.3 | -12.7 | –
HGDKCHGDKC | 0,01 | -1,99 | -1.991 | -1.99 | -1.991 | -1.991 | 0 | 0 | 0 | 0 | 0 | 0 | – | -8.035 mV | -11.63 mV | 12.43 | 1.095 | -1.991 | 263.3 | -11.63 | Log Infectivity [1, 15]: -1.99; Fibril ([2]; Fig S10 panel E): 0
HGEHGE | 0,01 | -2,19 | -2.193 | -2.19 | -2.193 | -2.193 | 0 | 0 | 0 | 0 | 0 | 0 | – | -8.73 mV | -12.6 mV | 240.6 | 2.381 | -2.193 | 140 | -12.6 | –
HGEHGEHGE | 0,02 | -1,72 | -1.72 | -1.72 | -1.72 | -1.72 | 0 | 0 | 0 | 0 | 0 | 0 | – | -14.63 mV | -24.2 mV | 340.4 | 2.532 | -1.72 | 360 | -24.2 | Log Infectivity [1, 15]: -1.72; Fibril ([2]; Fig S10 panel E): 0
HHHHEIEIEIEI | 0,03 | -1,53 | -1.534 | -1.53 | -1.534 | -1.534 | 0 | 0 | 0 | 0 | 0 | 0 | -6.91 | -6.272 mV | -6.91 mV | 103.3 | 2.014 | – | – | – | –
HIHIQIC | 0,27 | -0,57 | -0.5672 | -0.57 | -0.5672 | -0.5672 | 1 | – | – | 1 | 1 | 1 | – | -5.093 mV | -3.69 mV | 260.6 | 2.416 | -0.5672 | 4621 | -3.687 | Log Infectivity [1, 15]: -0.57; Log10 of Rel to EFC (Feb2021) ([1]; Log10 of infection relative to EF-C, all peptides of FigS16): -0.57; Fibril ([2]; Fig S10 panel E): 1; TEM 2cat ([2]; category: fibrils present or non-fibrillar): 1
